{
  "source": "patent US6350477B1",
  "about": "“Food material containing antioxidant ingredient derived from citrus fruits” (Pokka Corporation, priority 1998, dated 2002)",
  "key": {"[1]": {"assay": "Mutagenicity test according to Ames assay", "type": "cell-based", "method": "(§1) Eriocitrin is an ingredient derived from natural products, and it is contained in a juice of citrus fruits such as lemon and lime which have been already eaten in a large amount of several tens of milligrams per 100 ml. There is no problem with a safety to humans. It is negative in the mutagenicity test according to Rec-assay or Ames assay. Thus, the safety has been identified."}, "[2]": {"assay": "Mutagenicity test according to Rec-assay", "type": "cell-based", "method": "as §1"}},
  "data": [
    {"smiles": "C[C@@H]1O[C@@H](OC[C@H]2O[C@@H](Oc3cc(O)c4c(c3)O[C@H](c3ccc(O)c(O)c3)CC4=O)[C@H](O)[C@@H](O)[C@@H]2O)[C@H](O)[C@H](O)[C@H]1O", "note": "[Eriocitrin, eriodictyol-7-rutinoside]", "values": [
      {"measurement": "mutagenicity test according to Ames assay", "setting": "[1]", "result": "negative"},
      {"measurement": "mutagenicity test according to Rec-assay", "setting": "[2]", "result": "negative"}
    ]}
  ]
}
